Tests used:
human TLR7 = molecular target: T1, human TLR7 (Homo sapiens, UniProt Q9NYK1); experiment: TLR7 inhibition reporter assay (HEK-Blue cells, SEAP reporter, gardiquimod stimulation); assay type: cell-based; conditions: HEK-Blue cells overexpressing human TLR7, SEAP reporter, gardiquimod 7.5 μM; read-out: TLR7 IC50
T1 construct: host or cells: HEK-Blue cells
T1 sequence (Q9NYK1 27-1049): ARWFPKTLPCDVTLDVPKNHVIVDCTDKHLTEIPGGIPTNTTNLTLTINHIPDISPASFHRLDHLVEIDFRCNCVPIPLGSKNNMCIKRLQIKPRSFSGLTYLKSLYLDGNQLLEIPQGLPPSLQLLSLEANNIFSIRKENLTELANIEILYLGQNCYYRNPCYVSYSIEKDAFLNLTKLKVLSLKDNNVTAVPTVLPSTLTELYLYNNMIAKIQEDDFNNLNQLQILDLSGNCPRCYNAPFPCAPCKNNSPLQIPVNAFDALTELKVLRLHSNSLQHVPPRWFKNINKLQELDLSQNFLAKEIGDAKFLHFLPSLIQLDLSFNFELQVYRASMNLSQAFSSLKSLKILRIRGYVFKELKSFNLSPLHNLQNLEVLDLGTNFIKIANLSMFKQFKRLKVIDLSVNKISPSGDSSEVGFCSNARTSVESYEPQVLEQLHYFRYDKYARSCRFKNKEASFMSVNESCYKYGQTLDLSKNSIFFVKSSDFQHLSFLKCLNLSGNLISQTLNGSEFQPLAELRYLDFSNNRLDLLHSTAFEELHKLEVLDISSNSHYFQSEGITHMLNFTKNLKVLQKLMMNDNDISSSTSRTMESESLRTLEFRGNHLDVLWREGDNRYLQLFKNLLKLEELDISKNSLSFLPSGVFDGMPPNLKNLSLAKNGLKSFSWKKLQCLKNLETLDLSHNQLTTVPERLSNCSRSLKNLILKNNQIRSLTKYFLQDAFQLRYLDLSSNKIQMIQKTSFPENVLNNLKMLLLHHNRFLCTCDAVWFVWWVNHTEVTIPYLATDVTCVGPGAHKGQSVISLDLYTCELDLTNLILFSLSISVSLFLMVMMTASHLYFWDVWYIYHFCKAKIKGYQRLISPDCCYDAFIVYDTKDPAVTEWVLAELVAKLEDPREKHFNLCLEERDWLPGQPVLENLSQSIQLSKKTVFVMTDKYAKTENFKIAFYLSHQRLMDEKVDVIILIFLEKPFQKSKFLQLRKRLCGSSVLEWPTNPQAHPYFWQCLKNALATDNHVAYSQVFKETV
Protocol: (§1) TLR7/8/9 Inhibition Reporter Assays
(§2) HEK-Blue™-cells (Invivogen) overexpressing human TLR7, TLR8 or TLR9 receptors were used for screening inhibitors of these receptors using an inducible SEAP (secreted embryonic alkaline phosphatase) reporter gene under the control of the IFN-β minimal promoter fused to five NF-κB and AP-1-binding sites. Briefly, cells are seeded into Greiner 384 well plates (15000 cells per well for TLR7, 20,000 for TLR8 and 25,000 for TLR9) and then treated with test compounds in DMSO to yield a final dose response concentration range of 0.05 nM-50 μM. After a 30 minute compound pre-treatment at room temperature, the cells are then stimulated with a TLR7 ligand (gardiquimod at a final concentration of 7.5 μM), TLR8 ligand (R848 at a final concentration of 15.9 μM) or TLR9 ligand (ODN2006 at a final concentration of 5 nM) to activate NF-κB and AP-1 which induce the production of SEAP. After a 22 hour incubation at 37° C., 5% CO2, SEAP levels are determined with the addition of HEK-Blue™ Detection reagent (Invivogen), a cell culture medium that allows for detection of SEAP, according to manufacturer's specifications. The percent inhibition is determined as the % reduction in the HEK-Blue signal present in wells treated with agonist plus DMSO alone compared to wells treated with a known inhibitor.

human TLR8 = molecular target: T2, human TLR8 (Homo sapiens, UniProt Q9NR97); experiment: TLR8 inhibition reporter assay (HEK-Blue cells, SEAP reporter, R848 stimulation); assay type: cell-based; conditions: HEK-Blue cells overexpressing human TLR8, SEAP reporter, R848 15.9 μM; read-out: TLR8 IC50
T2 construct: host or cells: HEK-Blue cells
T2 sequence (Q9NR97 27-1041): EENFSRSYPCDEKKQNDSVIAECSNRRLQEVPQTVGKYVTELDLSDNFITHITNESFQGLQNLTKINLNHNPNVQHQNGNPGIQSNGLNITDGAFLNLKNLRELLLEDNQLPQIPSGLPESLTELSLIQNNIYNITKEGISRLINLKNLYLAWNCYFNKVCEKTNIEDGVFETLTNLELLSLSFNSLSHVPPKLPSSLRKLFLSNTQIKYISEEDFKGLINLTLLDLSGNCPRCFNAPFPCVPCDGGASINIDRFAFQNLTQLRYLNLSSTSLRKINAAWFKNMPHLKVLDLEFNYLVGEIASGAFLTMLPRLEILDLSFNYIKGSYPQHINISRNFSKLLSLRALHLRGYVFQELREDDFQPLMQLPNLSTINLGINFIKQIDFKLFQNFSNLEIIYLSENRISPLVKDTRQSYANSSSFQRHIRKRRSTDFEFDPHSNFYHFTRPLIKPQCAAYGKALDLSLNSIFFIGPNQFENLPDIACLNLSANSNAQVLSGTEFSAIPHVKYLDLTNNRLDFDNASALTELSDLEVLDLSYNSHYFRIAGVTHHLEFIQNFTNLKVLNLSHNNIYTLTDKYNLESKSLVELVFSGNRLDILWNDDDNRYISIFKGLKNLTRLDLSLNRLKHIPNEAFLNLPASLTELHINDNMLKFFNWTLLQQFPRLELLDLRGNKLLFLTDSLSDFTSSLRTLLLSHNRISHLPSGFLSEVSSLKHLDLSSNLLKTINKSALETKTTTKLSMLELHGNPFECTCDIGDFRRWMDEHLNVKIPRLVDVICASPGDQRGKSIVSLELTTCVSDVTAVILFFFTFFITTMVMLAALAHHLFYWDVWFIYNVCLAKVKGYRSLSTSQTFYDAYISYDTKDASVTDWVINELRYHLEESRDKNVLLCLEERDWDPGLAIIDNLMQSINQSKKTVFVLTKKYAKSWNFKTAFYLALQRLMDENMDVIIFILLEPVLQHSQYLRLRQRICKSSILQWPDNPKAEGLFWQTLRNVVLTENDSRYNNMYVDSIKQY
Protocol: as §1, §2

| IC50 (human TLR7) [µM] | IC50 (human TLR8) [µM] | Compound |
| --- | --- | --- |
| 0.0077 | 0.00271 | Cc1c(-c2[nH]c3sc(N4CCN(CC(N)=O)CC4)nc3c2C(C)C)cn2ncnc2c1C [Example 285, 2-(4-(5-(7,8-dimethyl-[1,2,4]triazolo[1,5-a]pyridin-6-yl)-6-isopropyl-4H-pyrrolo[3,2-d]thiazol-2-yl)piperazin-1-yl)acetamide] |
| 0.0256 | 0.0146 | Cc1c(-c2[nH]c3sc(N4CCN(C5COC5)CC4)nc3c2C(C)C)cn2ncnc2c1C [Example 286, 5-(7,8-dimethyl-[1,2,4]triazolo[1,5-a]pyridin-6-yl)-6-isopropyl-2-(4-(oxetan-3-yl)piperazin-1-yl)-4H-pyrrolo[3,2-d]thiazole] |
| 0.00944 | 0.0142 | Cc1c(-c2[nH]c3sc(N4CC5(C4)CN(C4COC4)C5)nc3c2C(C)C)cn2ncnc2c1C [Example 302, 5-(7,8-dimethyl-[1,2,4]triazolo[1,5-a]pyridin-6-yl)-6-isopropyl-2-(6-(oxetan-3-yl)-2,6-diazaspiro[3.3]heptan-2-yl)-4H-pyrrolo[3,2-d]thiazole] |
| 0.311 | 0.07 | Cc1c(-c2[nH]c3sc(N4CC5(CN(CCS(C)(=O)=O)C5)C4)nc3c2C(C)C)cn(C)c(=O)c1C [Example 305, 5-(6-isopropyl-2-(6-(2-(methylsulfonyl)ethyl)-2,6-diazaspiro[3.3]heptan-2-yl)-4H-pyrrolo[3,2-d]thiazol-5-yl)-1,3,4-trimethylpyridin-2(1H)-one] |
| 0.148 | 0.124 | Cc1c(-c2[nH]c3sc(N4CC5(C4)CN(C4COC4)C5)nc3c2C(C)C)cn(C)c(=O)c1C [Example 306, 5-(6-isopropyl-2-(6-(oxetan-3-yl)-2,6-diazaspiro[3.3]heptan-2-yl)-4H-pyrrolo[3,2-d]thiazol-5-yl)-1,3,4-trimethylpyridin-2(1H)-one] |
| 0.118 | 0.00933 | Cc1c(-c2[nH]c3sc(N4CC5(CN(CC6CCOCC6)C5)C4)nc3c2C(C)C)cn(C)c(=O)c1C [Example 307, 5-(6-isopropyl-2-(6-((tetrahydro-2H-pyran-4-yl)methyl)-2,6-diazaspiro[3.3]heptan-2-yl)-4H-pyrrolo[3,2-d]thiazol-5-yl)-1,3,4-trimethylpyridin-2(1H)-one] |
| 0.00542 | 0.0178 | Cc1c(-c2[nH]c3sc(N4CCN(CC(=O)N(C)C)C[C@H]4C)nc3c2C(C)C)cn2ncnc2c1C [Example 312, (R)-2-(4-(5-(7,8-dimethyl-[1,2,4]triazolo[1,5-a]pyridin-6-yl)-6-isopropyl-4H-pyrrolo[3,2-d]thiazol-2-yl)-3-methylpiperazin-1-yl)-N,N-dimethylacetamide] |
| 0.00371 | 0.00172 | Cc1c(-c2[nH]c3sc(N4CCN(CC(N)=O)C[C@H]4C)nc3c2C(C)C)cn2ncnc2c1C [Example 313, (R)-2-(4-(5-(7,8-dimethyl-[1,2,4]triazolo[1,5-a]pyridin-6-yl)-6-isopropyl-4H-pyrrolo[3,2-d]thiazol-2-yl)-3-methylpiperazin-1-yl)acetamide] |
| 0.0139 | 0.0185 | Cc1c(-c2[nH]c3sc(N4CCN(CCS(C)(=O)=O)C[C@H]4C)nc3c2C(C)C)cn2ncnc2c1C [Example 314, (R)-5-(7,8-dimethyl-[1,2,4]triazolo[1,5-a]pyridin-6-yl)-6-isopropyl-2-(2-methyl-4-(2-(methylsulfonyl)ethyl)piperazin-1-yl)-4H-pyrrolo[3,2-d] thiazole] |
| 0.00522 | 0.0202 | CNC(=O)CN1CCN(c2nc3c(C(C)C)c(-c4cn5ncnc5c(C)c4C)[nH]c3s2)[C@H](C)C1 [Example 315, (R)-2-(4-(5-(7,8-dimethyl-[1,2,4]triazolo[1,5-a]pyridin-6-yl)-6-isopropyl-4H-pyrrolo[3,2-d]thiazol-2-yl)-3-methylpiperazin-1-yl)-N-methylacetamide] |
| 0.012 | 0.0524 | Cc1c(-c2[nH]c3sc(N4CCN(C5COC5)C[C@H]4C)nc3c2C(C)C)cn2ncnc2c1C [Example 316, (R)-5-(7,8-dimethyl-[1,2,4]triazolo[1,5-a]pyridin-6-yl)-6-isopropyl-2-(2-methyl-4-(oxetan-3-yl)piperazin-1-yl)-4H-pyrrolo[3,2-d]thiazole] |
| 0.0155 | 0.0111 | Cc1c(-c2[nH]c3sc(N4C[C@@H](C)N(CC(=O)N(C)C)C[C@@H]4C)nc3c2C(C)C)cn2ncnc2c1C [Example 335, 2-((2R,5S)-4-(5-(7,8-dimethyl-[1,2,4]triazolo[1,5-a]pyridin-6-yl)-6-isopropyl-4H-pyrrolo[3,2-d]thiazol-2-yl)-2,5-dimethylpiperazin-1-yl)-N,N-dimethylacetamide] |
| 0.0196 | 0.0126 | CNC(=O)CN1CCN(c2nc3c(C(C)C)c(-c4cn5ncnc5c(C)c4C)[nH]c3s2)[C@@H](C)C1 [Example 342, (S)-2-(4-(5-(7,8-dimethyl-[1,2,4]triazolo[1,5-a]pyridin-6-yl)-6-isopropyl-4H-pyrrolo[3,2-d]thiazol-2-yl)-3-methylpiperazin-1-yl)-N-methylacetamide] |
| 0.0241 | 0.0033 | Cc1c(-c2[nH]c3sc(N4CCN(CC(=O)N(C)C)C[C@@H]4C)nc3c2C(C)C)cn2ncnc2c1C [Example 343, (S)-2-(4-(5-(7,8-dimethyl-[1,2,4]triazolo[1,5-a]pyridin-6-yl)-6-isopropyl-4H-pyrrolo[3,2-d]thiazol-2-yl)-3-methylpiperazin-1-yl)-N,N-dimethylacetamide] |
| 0.039 | 0.0127 | Cc1c(-c2[nH]c3sc(N4CCN(CCS(C)(=O)=O)C[C@@H]4C)nc3c2C(C)C)cn2ncnc2c1C [Example 344, (S)-5-(7,8-dimethyl-[1,2,4]triazolo[1,5-a]pyridin-6-yl)-6-isopropyl-2-(2-methyl-4-(2-(methylsulfonyl)ethyl)piperazin-1-yl)-4H-pyrrolo[3,2-d]thiazole] |

From patent US20230139171A1 (SITA Information Networking Computing UK Limited, priority 2019, published 2023)
